Measured values reported in ChEMBL document CHEMBL1201862, “PubChem BioAssay data set” (2004).
Activity calls are given as the source filed them.

Tests used:
BJ [1] = assay: cytotoxicity toward BJ-TERT fibroblasts, dose response, cell-based, RAS-independent, luminescence (AID 1933); type: functional; settings: Homo sapiens
BJ [2] = assay: cells; type: functional, cell-based; settings: Homo sapiens
[3] = cytotoxicity toward DRD oncogenic fibroblasts, dose response, cell-based, non-viral oncogenic, luminescence (AID 1934); type: functional; settings: Homo sapiens
[4] = biological target: T1, Replicative DNA helicase DnaB (Mycobacterium tuberculosis, UniProt P9WMR3); assay: DnaB intein splicing inhibitors, dose response, biochemical, cell-free fluorescence (AID 449749); type: functional
T1 sequence (P9WMR3 whole entry): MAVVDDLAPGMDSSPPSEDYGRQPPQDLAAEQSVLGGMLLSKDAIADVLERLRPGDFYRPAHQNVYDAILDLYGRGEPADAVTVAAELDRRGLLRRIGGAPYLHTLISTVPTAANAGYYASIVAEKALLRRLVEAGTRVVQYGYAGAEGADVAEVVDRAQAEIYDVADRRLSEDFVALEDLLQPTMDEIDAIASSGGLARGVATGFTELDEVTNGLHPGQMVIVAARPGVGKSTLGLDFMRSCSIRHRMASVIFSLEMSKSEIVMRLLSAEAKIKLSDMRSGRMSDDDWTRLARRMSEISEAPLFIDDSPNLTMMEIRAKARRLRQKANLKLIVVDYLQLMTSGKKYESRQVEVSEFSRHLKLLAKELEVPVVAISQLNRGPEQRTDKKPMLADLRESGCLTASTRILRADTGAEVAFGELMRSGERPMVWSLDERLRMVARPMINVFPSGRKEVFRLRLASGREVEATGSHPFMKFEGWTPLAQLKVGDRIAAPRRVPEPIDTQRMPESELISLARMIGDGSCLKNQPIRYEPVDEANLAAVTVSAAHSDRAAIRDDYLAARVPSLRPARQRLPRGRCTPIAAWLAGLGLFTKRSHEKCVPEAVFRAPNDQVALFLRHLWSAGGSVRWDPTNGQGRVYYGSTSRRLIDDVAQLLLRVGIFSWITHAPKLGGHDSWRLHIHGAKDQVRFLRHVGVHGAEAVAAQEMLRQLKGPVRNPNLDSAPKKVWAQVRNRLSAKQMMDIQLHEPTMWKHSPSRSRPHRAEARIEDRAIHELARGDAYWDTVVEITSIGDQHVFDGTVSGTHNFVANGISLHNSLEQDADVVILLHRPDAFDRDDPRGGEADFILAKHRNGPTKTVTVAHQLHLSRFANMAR

Protein RecA = biological target: T2, Protein RecA (Mycobacterium tuberculosis, UniProt P9WHJ3); assay: Fluorescence Cell-Free Homogeneous Dose Retest to Identify Inhibitors of RecA-Intein Splicing Activity. [Related pubchem assays (depositor defined):AID2097, AID2223, AID489010, AID492950]; type: functional
T2 sequence (P9WHJ3 whole entry): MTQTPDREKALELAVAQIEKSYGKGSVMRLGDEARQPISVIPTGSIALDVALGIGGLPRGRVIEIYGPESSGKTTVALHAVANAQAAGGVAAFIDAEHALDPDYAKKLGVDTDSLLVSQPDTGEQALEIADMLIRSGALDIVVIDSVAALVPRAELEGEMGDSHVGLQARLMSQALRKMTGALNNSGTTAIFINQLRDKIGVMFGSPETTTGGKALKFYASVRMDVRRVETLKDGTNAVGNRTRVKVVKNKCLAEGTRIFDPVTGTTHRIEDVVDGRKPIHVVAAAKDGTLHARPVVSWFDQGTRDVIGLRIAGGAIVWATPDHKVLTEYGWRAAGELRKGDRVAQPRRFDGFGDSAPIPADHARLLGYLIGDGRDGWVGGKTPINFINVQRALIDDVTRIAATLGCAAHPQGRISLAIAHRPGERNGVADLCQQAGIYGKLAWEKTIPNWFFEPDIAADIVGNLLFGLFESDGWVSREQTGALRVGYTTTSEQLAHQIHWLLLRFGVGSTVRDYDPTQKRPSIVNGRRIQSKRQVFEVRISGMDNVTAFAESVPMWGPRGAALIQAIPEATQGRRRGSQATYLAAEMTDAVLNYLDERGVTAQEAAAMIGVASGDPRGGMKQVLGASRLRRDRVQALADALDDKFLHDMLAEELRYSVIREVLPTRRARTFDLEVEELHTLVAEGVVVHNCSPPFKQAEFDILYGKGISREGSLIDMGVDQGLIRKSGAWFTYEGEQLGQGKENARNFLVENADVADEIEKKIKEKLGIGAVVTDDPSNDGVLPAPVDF

[5] = HEp-2 cell cytotoxicity, dose response, cytotoxicity control for RSV inhibitor project, HTS (AID 2410); type: functional; settings: human respiratory syncytial virus
[6] = biological target: Induced myeloid leukemia cell differentiation protein Mcl-1 (Homo sapiens, UniProt Q07820); type: functional
[7] = biological target: T3, Heat shock factor protein 1 (Mus musculus, UniProt P38532); assay: HSF1 potentiators in luciferase reporter cells, confirmation, cell-based, NIH3T3, luminescence, dose retest (AID 435004); type: functional;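 further: stress induced by proteasome inhibitor MG132 added 30 min after compound; luciferase reporter driven by HSF1 response element in NIH3T3 cells; actives raise luminescence as potentiators of the MG132 stress response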
T3 sequence (P38532 whole entry): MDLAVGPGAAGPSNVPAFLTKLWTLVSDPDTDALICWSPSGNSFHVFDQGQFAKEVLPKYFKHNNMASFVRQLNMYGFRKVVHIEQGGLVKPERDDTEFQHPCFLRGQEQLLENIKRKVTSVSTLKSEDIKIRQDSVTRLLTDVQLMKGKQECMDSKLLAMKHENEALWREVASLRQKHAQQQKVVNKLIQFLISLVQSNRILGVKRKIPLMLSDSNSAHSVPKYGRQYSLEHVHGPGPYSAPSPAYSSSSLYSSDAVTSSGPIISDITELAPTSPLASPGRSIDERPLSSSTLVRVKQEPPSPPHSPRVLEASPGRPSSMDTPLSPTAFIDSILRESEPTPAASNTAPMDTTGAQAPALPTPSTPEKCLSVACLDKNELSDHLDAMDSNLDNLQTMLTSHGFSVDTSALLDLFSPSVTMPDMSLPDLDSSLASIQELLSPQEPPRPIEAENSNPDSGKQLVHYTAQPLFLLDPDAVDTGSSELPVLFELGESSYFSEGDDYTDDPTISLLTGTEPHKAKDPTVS

[8] = inhibitors of intracellular T. cruzi replication, confirmation, NIH3T3 host cells, beta-gal luminescence (AID 2044); type: functional, cell-based;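 further: intracellular parasites grown in NIH/3T3 mouse fibroblasts as host cells; luminescent beta-galactosidase reporter signal from transgenic T. cruzi replicating inside host cells; inhibitors lower the luminescence signal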
[9] = cytotoxicity toward NIH3T3 fibroblasts, dose response, counter-screen, cell-based, ATP luminescence, mouse fibroblasts (AID 2010); type: functional;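 further: cells exposed to compound for about 90 hours before reading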
[10] = biological target: T4, RNA-binding protein pos-1 (Caenorhabditis elegans, UniProt G5EF15); assay: inhibitors of POS-1/mex-3 RNA binding, dose response, biochemical, fluorescence polarization (AID 1964);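 further: purified POS-1 fused to maltose binding protein made in E. coli; potency of compounds blocking POS-1 binding to fluorescent RNA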
T4 sequence (G5EF15 whole entry): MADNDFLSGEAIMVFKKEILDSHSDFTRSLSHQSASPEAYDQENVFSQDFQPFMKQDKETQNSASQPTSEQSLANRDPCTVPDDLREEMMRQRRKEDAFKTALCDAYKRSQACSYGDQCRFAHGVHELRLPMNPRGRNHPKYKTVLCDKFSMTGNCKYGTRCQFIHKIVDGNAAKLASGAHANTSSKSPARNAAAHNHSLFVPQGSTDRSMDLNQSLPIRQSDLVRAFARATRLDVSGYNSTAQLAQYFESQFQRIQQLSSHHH

[11] = biological target: T5, Zinc finger protein mex-5 (Caenorhabditis elegans, UniProt Q9XUB2); assay: MEX-5/TCR-2 RNA interaction inhibitors, dose response, biochemical, C. elegans, fluorescence polarization (AID 1960)
T5 sequence (Q9XUB2 whole entry): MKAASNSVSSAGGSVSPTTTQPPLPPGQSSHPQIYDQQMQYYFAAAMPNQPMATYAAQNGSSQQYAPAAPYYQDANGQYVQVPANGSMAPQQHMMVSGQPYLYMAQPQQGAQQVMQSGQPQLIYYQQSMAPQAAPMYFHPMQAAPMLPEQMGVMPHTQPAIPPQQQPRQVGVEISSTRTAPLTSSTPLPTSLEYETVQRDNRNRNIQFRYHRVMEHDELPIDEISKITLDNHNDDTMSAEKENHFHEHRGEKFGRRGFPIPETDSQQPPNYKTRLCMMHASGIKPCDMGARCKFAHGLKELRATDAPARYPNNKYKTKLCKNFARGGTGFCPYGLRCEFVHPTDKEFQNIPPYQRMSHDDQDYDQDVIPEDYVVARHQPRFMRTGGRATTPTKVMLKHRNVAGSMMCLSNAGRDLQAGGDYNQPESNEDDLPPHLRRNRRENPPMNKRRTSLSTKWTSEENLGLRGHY

Cytochrome P450 1A2 = biological target: T6, Cytochrome P450 1A2 (Homo sapiens, UniProt P05177);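 further: PubChem cytochrome P450 panel assay, CYP1A2 panel member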
T6 sequence (P05177 whole entry): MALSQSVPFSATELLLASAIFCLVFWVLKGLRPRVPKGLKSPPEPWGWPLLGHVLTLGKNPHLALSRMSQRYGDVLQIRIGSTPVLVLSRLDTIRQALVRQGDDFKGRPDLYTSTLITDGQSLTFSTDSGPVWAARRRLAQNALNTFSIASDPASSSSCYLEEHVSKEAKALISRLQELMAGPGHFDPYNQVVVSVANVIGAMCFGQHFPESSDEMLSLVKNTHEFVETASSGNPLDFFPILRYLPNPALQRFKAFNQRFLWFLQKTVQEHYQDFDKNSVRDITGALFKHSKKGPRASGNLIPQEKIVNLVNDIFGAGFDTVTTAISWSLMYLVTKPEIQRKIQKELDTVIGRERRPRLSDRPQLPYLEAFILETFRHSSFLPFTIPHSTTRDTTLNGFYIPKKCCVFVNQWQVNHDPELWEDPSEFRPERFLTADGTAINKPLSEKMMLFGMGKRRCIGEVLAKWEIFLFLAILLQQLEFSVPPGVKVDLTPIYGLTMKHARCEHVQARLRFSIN

[12] = growth suppression of PTEN-null colon cells, dose response, cell-based, HCT116 PTEN knockout (AID 1047); type: functional;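 further: HCT116 colon tumor cells with PTEN knocked out; cells exposed to compound for 60 hours before readout; potency for loss of cell viability measured by luminescence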
[13] = growth suppression of beta-catenin-knockout colon cells, dose response, cell-based, HCT116, human colon tumor (AID 1045); type: functional;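 further: HCT116 colon tumor cells with beta catenin knocked out; cells exposed to compound for 60 hours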
P388/ADR = assay: cells; type: functional; settings: Mus musculus
SN12K1 = assay: cells; type: functional; settings: Homo sapiens
P388 = assay: cells; type: functional; settings: Mus musculus
Cytochrome P450 2C19 = Cytochrome P450 2C19 (Homo sapiens, UniProt P33261); assay: Cytochrome panel assay with activity outcomes. Panel member name: p450-cyp2c19 Compounds with AC50 equal or less than 10 uM are considered active; type: functional; settings: read-out: AC50
Cytochrome P450 3A4 = Cytochrome P450 3A4 (Homo sapiens, UniProt P08684);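 further: CYP3A4 tested as one member of a cytochrome P450 panel screen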
Chain of Cytochrome P450 3A4 (P08684 whole entry): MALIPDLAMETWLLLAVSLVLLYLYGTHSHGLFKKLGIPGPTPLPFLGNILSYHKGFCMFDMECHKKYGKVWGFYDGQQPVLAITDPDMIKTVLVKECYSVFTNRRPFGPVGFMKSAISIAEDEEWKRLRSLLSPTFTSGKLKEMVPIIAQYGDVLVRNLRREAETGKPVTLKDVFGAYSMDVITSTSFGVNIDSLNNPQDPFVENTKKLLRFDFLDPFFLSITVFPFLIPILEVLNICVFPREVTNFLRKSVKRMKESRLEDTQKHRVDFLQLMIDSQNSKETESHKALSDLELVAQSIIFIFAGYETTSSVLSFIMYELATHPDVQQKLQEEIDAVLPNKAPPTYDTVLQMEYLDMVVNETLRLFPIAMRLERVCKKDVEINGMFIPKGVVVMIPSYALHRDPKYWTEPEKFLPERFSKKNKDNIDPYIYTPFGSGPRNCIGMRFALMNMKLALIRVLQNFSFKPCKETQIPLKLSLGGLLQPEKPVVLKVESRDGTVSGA

Chain of Induced myeloid leukemia cell differentiation protein Mcl-1 (Q07820 whole entry): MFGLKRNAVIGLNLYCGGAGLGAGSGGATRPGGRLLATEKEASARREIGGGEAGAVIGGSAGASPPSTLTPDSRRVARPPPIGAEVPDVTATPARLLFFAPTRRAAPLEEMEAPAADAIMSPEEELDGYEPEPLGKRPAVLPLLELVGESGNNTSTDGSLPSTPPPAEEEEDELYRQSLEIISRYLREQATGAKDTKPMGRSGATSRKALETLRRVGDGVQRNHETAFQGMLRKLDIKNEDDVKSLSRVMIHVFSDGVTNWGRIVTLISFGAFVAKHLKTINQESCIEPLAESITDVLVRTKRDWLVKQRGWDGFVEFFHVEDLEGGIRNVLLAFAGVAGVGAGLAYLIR
Chain of Cytochrome P450 2C19 (P33261 whole entry): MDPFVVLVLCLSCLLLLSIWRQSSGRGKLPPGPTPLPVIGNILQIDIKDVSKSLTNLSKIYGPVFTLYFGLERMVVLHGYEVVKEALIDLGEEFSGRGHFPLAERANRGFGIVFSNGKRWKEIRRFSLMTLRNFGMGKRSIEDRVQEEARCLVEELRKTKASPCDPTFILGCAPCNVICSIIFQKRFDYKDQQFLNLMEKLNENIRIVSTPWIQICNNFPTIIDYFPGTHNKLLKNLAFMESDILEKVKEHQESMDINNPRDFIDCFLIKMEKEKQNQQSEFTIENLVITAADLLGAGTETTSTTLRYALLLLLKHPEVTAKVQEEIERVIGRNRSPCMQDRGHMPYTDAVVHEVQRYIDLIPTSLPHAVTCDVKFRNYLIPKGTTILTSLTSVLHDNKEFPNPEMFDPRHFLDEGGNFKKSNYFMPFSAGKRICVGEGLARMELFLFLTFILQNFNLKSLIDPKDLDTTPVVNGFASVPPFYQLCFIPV

Structure (SMILES): CCc1ccc(/C=C2/SC(=S)N(CCC(=O)NCCCN3CCOCC3)C2=O)cc1
- EC50 (BJ [1]): 1.32 µM (active)
- EC50 (BJ [2]): 14.5 µM (active)
- EC50 [3]: > 38 µM (not active)

Structure (SMILES): O=C(CSc1nc2ccccc2nc1SCC(=O)N1CCOCC1)N1CCOCC1
- AC50 [4]: 194 µM (active)
- EC50 (Protein RecA): > 380 µM (inactive)

Structure (SMILES): COC(=O)c1ccc(Cn2cnc3c(sc4nc(N5CCOCC5)c5c(c43)CCCC5)c2=O)o1
- CC50 [5]: > 50 µM (active)

Structure (SMILES): CC(=O)Oc1ccc(NC(=O)CSc2ccccc2)cc1
- IC50 [6]: < 0.4 µM (not active)

Structure (SMILES): CCCCNC1C(CC)C(CCC)C(C#N)(C#N)C1(C#N)C#N (centres undefined)
- EC50 [7]: 11.1 µM (active)
- AC50 [4]: > 380 µM (inactive)
- EC50 (Protein RecA): 2.36 µM (active)

Structure (SMILES): COCCOC(=O)C1=C(C)N(Cc2ccccc2)C(=O)NC1c1ccc(OC)cc1 (centres undefined)
- CC50 [5]: 23.2 µM (active)

Structure (SMILES): O=C(NC1CCCCC1)C(c1ccncc1)N(Cc1ccccc1)C(=O)c1ccc(-c2ccccc2)[nH]1 (centres undefined)
- CC50 [5]: 7.92 µM (active)
- EC50 [8]: 0.413 µM (active)
- EC50 [9]: > 60 µM (not active)

Structure (SMILES): N#Cc1c(NC(=O)CSC2=NCCS2)sc2c1CCCC2
- CC50 [5]: 22.5 µM (active)

Structure (SMILES): COc1cc(C2C(C#N)=C(N)OC3=C2C(=O)CCC3)c([N+](=O)[O-])cc1OC (centres undefined)
- EC50 [10]: 15.8 µM (active)
- EC50 [11]: 13.8 µM (active)
- IC50 [6]: 3.9 µM (active)
- AC50 (Cytochrome P450 1A2): 31.6 µM (inconclusive)

Structure (SMILES): Cc1ccc(S(=O)(=O)c2nc(-c3ccc(F)cc3)oc2SCC(=O)NCC2CCCO2)cc1 (centres undefined)
- EC50 [12]: 83.1 µM (active)
- EC50 [13]: 35.3 µM (active)

Structure (SMILES): O=[N+]([O-])c1ccc(N=Nc2c(O)[nH]c3ccc(F)cc23)cc1
- CC50 [5]: 26.1 µM (active)

Structure (SMILES): Cc1cccc(N2CCN(C(=O)c3cn(C)c(=O)c4c3c3ccccc3n4C)CC2)c1C
- EC50 [12]: 19.1 µM (active)
- EC50 [13]: 18.6 µM (active)

Structure (SMILES): Cc1ccc(S(=O)(=O)N2CCC(Oc3cccc(C(F)(F)F)c3)CC2)cc1
- CC50 [5]: 16.5 µM (active)

Structure (SMILES): O=[N+]([O-])c1ccc(Nc2cccc3c4cc[nH]c(-c5ccccc5)c-4nc23)c([N+](=O)[O-])c1
- GI50 (P388/ADR): 14.3 µM (inactive)
- GI50 (SN12K1): 10 µM (inactive)
- GI50 (P388): 20.1 µM (inactive)

Structure (SMILES): O=S1(=O)N2CN3CN(C2)CN1C3
- GI50 (P388/ADR): 21.2 µM (inactive)
- GI50 (SN12K1): > 100 µM (inactive)
- GI50 (P388): 18.5 µM (inactive)

Structure (SMILES): CC(C)(C)c1ccc(C2CC2C(=O)N/N=C\c2cc3ccccc3nc2Cl)cc1 (centres undefined)
- CC50 [5]: 20.1 µM (active)
- AC50 (Cytochrome P450 2C19): 11.2 µM (inconclusive)
- AC50 (Cytochrome P450 1A2): 28.2 µM (inconclusive)
- AC50 (Cytochrome P450 3A4): 15.8 µM (inconclusive)

Structure (SMILES): Cc1cc(C(=O)N/N=C/c2ccc(O)c([N+](=O)[O-])c2)c(C)n1-c1ccc(F)cc1
- IC50 [6]: 3.74 µM (active)

Structure (SMILES): CC(=O)Nc1sc(N/N=C\c2ccc(O)cc2)nc1-c1cccs1
- IC50 [6]: 2.4 µM (active)

Structure (SMILES): COc1ccc(/C=C/C(=O)Oc2ccc(/C=N/NC(=O)c3ccccc3)cc2)cc1OC
- EC50 [12]: 27.7 µM (active)
- EC50 [13]: 25.8 µM (active)
